Measurements reported in patent US20260138976A1 (Hoffmann-La Roche Inc., priority 2022, published 2026).

What was measured:
[1] = target: T1, DGKα (hDGKalpha(1-735)-N-His) (Homo sapiens, UniProt P23743); test: In vitro DGK inhibition assay, DGKalpha ADP Glo (in house); assay type: biochemical; details: 4 nM DGKα, 25 μM ATP, 125 uM DLG in liposomes, 1 hour reaction
T1 construct: hDGKalpha(1-735)-N-His; His (N); made in house; host or cells: Sf21 insect cells (baculovirus)
Summary of the method: (§1)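 ADP-Glo luminescence measured ADP formed over 1 h by Sf21-expressed full-length human enzymes: DGKα at 4 nM with 25 µM ATP, DGKζ at 2 nM with 50 µM ATP, both on 125 µM DLG in PS/PC liposomes. Dose–response used 11 threefold dilutions at 2% final DMSO.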

[2] = target: T2, DGKζ (hDGKzeta(1-928)-N-His) (Homo sapiens, UniProt Q13574); test: In vitro DGK inhibition assay, DGKzeta ADP Glo (in house); assay type: biochemical; details: 2 nM DGKζ, 50 μM ATP, 125 uM DLG in liposomes, 1 hour reaction
T2 construct: hDGKzeta(1-928)-N-His; His (N); made in house; host or cells: Sf21 insect cells (baculovirus)
Summary of the method: as §1

primary human T-cells = test: IL2 secretion measurements (24 h, CD3-stimulated T-cells, PBS counter screen); assay type: cell-based; details: for Emax IL2 (% activation): CD3 condition, normalised to DMSO (neutral) and 20 μM reference compound A1 = 100%; for EC50: Homo sapiens, T-cell, CD3-stimulated primary human T-cells, IL2 secretion, fitted sigmoidal curve, read-out: Tcell IL2 CD3 EC50
Summary of the method: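 IL-2 secretion was measured by ProQuantum or ELISA after 24 h culture of expanded human T-cells with compound, on CD3-antibody-coated plates or PBS counter-screen plates. Dosing used 5–6 points from a 20 or 10 μM final top at 3.333-fold steps in 0.2% DMSO. EC50/Emax were scaled between DMSO and 20 μM reference A1.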

T1 sequence (P23743 whole entry): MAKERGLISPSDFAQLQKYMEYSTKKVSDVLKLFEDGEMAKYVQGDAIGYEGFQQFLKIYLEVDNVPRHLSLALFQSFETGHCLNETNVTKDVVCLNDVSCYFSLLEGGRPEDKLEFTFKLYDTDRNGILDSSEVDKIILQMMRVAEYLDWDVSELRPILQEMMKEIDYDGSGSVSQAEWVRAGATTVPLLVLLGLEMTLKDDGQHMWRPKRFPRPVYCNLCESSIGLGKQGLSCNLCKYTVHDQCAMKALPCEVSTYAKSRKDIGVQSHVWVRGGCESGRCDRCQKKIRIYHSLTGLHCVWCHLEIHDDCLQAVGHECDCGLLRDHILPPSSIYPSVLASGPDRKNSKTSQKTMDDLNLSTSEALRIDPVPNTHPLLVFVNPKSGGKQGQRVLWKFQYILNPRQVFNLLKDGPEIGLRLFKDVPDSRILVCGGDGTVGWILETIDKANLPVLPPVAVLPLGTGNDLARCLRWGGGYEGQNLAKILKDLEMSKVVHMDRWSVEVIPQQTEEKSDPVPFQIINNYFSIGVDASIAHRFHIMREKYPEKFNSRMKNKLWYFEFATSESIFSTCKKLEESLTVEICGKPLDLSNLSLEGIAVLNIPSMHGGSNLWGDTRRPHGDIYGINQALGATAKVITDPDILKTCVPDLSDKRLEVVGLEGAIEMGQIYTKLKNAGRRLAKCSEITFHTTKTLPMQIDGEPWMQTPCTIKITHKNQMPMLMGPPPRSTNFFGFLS
T2 sequence (Q13574 whole entry): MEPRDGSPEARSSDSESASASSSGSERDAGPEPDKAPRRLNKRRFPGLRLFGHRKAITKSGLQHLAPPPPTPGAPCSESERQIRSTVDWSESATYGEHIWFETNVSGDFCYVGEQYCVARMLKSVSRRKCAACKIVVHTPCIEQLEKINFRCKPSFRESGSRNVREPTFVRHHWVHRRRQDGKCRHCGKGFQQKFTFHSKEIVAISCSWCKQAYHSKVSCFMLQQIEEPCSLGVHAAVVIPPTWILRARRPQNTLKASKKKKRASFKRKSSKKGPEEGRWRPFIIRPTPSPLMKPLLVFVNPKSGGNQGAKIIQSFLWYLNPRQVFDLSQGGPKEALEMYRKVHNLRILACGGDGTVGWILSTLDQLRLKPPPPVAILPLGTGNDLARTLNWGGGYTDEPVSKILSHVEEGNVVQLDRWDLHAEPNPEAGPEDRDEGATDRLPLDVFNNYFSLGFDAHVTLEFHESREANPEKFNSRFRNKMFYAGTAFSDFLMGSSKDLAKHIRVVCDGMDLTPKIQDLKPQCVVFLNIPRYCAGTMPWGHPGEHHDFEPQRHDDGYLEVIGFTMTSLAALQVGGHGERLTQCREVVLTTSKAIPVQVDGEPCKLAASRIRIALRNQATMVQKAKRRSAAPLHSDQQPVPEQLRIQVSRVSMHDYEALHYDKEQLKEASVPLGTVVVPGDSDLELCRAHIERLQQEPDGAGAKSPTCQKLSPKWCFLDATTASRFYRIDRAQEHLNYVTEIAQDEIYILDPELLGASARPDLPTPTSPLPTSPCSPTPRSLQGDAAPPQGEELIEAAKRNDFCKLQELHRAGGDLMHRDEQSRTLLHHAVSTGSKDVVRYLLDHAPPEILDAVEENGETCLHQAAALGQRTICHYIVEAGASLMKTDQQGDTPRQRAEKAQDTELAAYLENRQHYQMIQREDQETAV

| SMILES | IC50 [1] [nM] | IC50 [2] [nM] | Emax IL2 (% activation) (primary human T-cells) | EC50 (primary human T-cells) [nM] |
| --- | --- | --- | --- | --- |
| Cc1nc(F)ccc1-c1nc(-c2ccc3c(c2)N(Cc2ccc(-c4noc(C5CC5)n4)cc2)C(=O)[C@@H](N)CS3(=O)=O)no1 [Example 86, (3R)-3-amino-5-[[4-(5-cyclopropyl-1,2,4-oxadiazol-3-yl)phenyl]methyl]-7-[5-(6-fluoro-2-methyl-3-pyridyl)-1,2,4-oxadiazol-3-yl]-1,1-dioxo-2,3-dihydro-1λ^6,5-benzothiazepin-4-one] | > 62500 | 642 | 101 | 4160 |
| N[C@H]1CS(=O)(=O)c2ccc(-c3noc(-c4cccnc4C(F)(F)F)n3)cc2N(Cc2ccc(-c3noc(C4CC4)n3)cc2)C1=O [Example 87, (3R)-3-amino-5-[[4-(5-cyclopropyl-1,2,4-oxadiazol-3-yl)phenyl]methyl]-1,1-dioxo-7-[5-[2-(trifluoromethyl)-3-pyridyl]-1,2,4-oxadiazol-3-yl]-2,3-dihydro-1λ^6,5-benzothiazepin-4-one] | > 62500 | 2310 | 16 | > 10000 |
| CC(C)(C)c1nnc(-c2ccc3c(c2)N(Cc2ccc(-c4nc(C(F)(F)F)co4)cc2)C(=O)[C@@H](N)CS3(=O)=O)o1 [Example 89, (3R)-3-amino-7-(5-tert-butyl-1,3,4-oxadiazol-2-yl)-1,1-dioxo-5-[[4-[4-(trifluoromethyl)oxazol-2-yl]phenyl]methyl]-2,3-dihydro-1λ^6,5-benzothiazepin-4-one] | 8270 | 613 | 182 | 377 |
| CC(C)(C)c1nnc(-c2ccc3c(c2)N(Cc2ccc(-n4cnc(C(F)(F)F)n4)cc2)C(=O)[C@@H](N)CS3(=O)=O)o1 [Example 91, (3R)-3-amino-7-(5-tert-butyl-1,3,4-oxadiazol-2-yl)-1,1-dioxo-5-[[4-[3-(trifluoromethyl)-1,2,4-triazol-1-yl]phenyl]methyl]-2,3-dihydro-126,5-benzothiazepin-4-one] | 4240 | 3010 | 113 | 3600 |
| N[C@H]1CS(=O)(=O)c2ccc(-c3nnc(C4(C5CC5)CCCO4)o3)cc2N(Cc2ccc(-c3nnc(C(F)(F)F)o3)cc2)C1=O (stereo partly drawn) [Example 97, (3R)-3-amino-7-[5-(2-cyclopropyltetra-hydrofuran-2-yl)-1,3,4-oxadiazol-2-yl]-1,1-dioxo-5-[[4-[5-(trifluoromethyl)-1,3,4-oxadiazol-2-yl]phenyl]methyl]-2,3-dihydro-1λ6,5-benzothiazepin-4-one] | 4680 | 2080 | 115 | 6350 |
| CC(c1nc(-c2ccc(CN3C(=O)[C@@H](N)CS(=O)(=O)c4ccc(-c5nnc(C6(N)CCCCC6)o5)cc43)cc2)no1)C(F)(F)F (stereo partly drawn) [Example 98, (3R)-3-amino-7-[5-(1-aminocyclohexyl)-1,3,4-oxadiazol-2-yl]-1,1-dioxo-5-[[4-[5-(2,2,2-trifluoro-1-methyl-ethyl)-1,2,4-oxadiazol-3-yl]phenyl]methyl]-2,3-dihydro-1λ^6,5-benzothiazepin-4-one] | 23800 | 1030 | 97 | 1370 |
| CC(C)(C#N)c1nnc(-c2ccc3c(c2)N(Cc2ccc(-n4ccc(C(F)(F)F)n4)cc2)C(=O)[C@@H](N)CS3(=O)=O)o1 [Example 121, 2-[5-[(3R)-3-amino-1,1,4-trioxo-5-[[4-[3-(trifluoromethyl)pyrazol-1-yl]phenyl]methyl]-2,3-dihydro-1λ^6,5-benzothiazepin-7-yl]-1,3,4-oxadiazol-2-yl]-2-methyl-propanenitrile] | > 6250 | 767 | 207 | 732 |
| CC(C)(C#N)c1nnc(-c2ccc3c(c2)N(Cc2ccc(-c4ccc(OC(F)(F)F)cn4)cc2)C(=O)[C@@H](N)CS3(=O)=O)o1 [Example 124] | 2400 | 801 | 154 | 278 |
